According to publication PMC6222891, “Bioinspired Honokiol Analogs and Their Evaluation for Activity on the Norepinephrine Transporter” (Molecules : A Journal of Synthetic Chemistry and Natural …, 2018):

Target: T1, human norepinephrine transporter (hNET) (Homo sapiens, UniProt P23975)
T1 construct: expressed in transfected cells
Assay: fluorescent neurotransmitter transporter uptake assay (plate reader)
Type: cell-based
Conditions: HEK-hNET-hVMAT2-mCherry cells; compounds selected for follow-up assays
Experimental: Cell line: All screening was done in a line of human embryonic kidney cells stably expressing the human norepinephrine transporter and the vesicular monoamine transporter 2 (HEK-hNET- -hVMAT2-mCherry). Human VMAT2 expression, in addition to hNET, more fully recapitulates a neuronal phenotype in cell culture. Cells were imaged and fully characterized for functionality (Figure 1). […] Screening: Synthesized compounds were tested for interaction with NET via a three-step process. First, all compounds were tested using a commercially available fluorescent assay (neurotransmitter transport uptake kit, Molecular Devices, San Jose, CA, USA) for the assessment of plasmalemmal monoamine transport ability. Cells were plated in poly-D-lysine (PDL)-coated 96-well plates (Corning Inc., Corning, NY, USA) to 100% confluence. The following day, cell media (DMEM, 10% fetal bovine serum, 1% penicillin/streptomycin) was removed, and experimental media (Hank’s balanced salt solution, Sigma-Aldrich) was added. […] Plates were incubated for 1 h, then read on a fluorescent plate reader (Thermo Fisher). Experiments were conducted in triplicate. […] Cells were plated to confluence in 48-well PDL-coated plates the day prior to the experiment. For experiments, media was removed, cells were rinsed with phosphate buffered saline (PBS), and incubated with or without compounds or desipramine (10 nM to 10 μM, non-specific uptake measured by addition of 100 μM desipramine) for ten minutes at 37 °C. Dopamine (1 μM total concentration with 200 nM ^3H-dopamine tracer) was added and uptake proceeded for 10 min at 37 °C. Cells were then rinsed three times with PBS, lysed with 0.1 N NaOH, and measured via liquid scintillation counting (Beckman Coulter, Brea, CA, USA). Finally, each selected compound was visualized with high-content imaging using the Array Scan VTI HCS (Cellomics). Cells were seeded to 80% confluence in PDL-coated, glass-bottom 96-well plates. Media was removed and DMEM without phenol red with or without compounds or desipramine (10 nM to 10 μM) was added. Following a one-hour incubation, cells were imaged. Forty-nine contiguous fields per well were taken and total fluorescence in the green channel was reported.
Figure 1 Plate reader-based fluorescent assay using human NET in a validation assay of the scree-ning strategy using the known NET inhibitor desipramine as a positive control. […] (C) Finally, uptake was visualized using high content imaging with the Array Scan VTI HCS (Cellomics, Thermo Fisher Scientific, Waltham, MA, USA) to visualize nuclei (stained with DAPI), VMAT2-mCherry, and dye. All experiments were conducted in triplicate and analyzed with nonlinear regression analysis in GraphPad Prism (GraphPad Software, La Jolla, CA, USA). Scale: […].

T1 sequence (P23975 whole entry): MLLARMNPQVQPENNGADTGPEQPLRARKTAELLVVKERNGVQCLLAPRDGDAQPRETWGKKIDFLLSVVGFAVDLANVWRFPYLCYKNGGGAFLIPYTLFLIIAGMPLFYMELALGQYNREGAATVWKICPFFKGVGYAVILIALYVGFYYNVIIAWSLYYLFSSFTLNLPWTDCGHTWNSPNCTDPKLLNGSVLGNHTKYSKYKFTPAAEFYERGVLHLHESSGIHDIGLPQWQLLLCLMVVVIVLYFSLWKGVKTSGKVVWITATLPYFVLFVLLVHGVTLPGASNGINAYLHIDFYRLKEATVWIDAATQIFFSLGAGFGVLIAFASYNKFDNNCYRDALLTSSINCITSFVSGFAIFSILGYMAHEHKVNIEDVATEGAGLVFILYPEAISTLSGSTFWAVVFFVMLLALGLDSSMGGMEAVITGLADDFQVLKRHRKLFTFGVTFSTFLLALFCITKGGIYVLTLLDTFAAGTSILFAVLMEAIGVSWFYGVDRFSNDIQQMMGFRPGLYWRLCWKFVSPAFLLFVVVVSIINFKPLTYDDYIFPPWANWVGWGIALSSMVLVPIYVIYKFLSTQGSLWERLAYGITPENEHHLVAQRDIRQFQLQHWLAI

CCCc1ccc(OC)c(-c2ccc(OC)c(CCC)c2)c1 [Compound H20]
modulation of transport activity in the fluorescent screen (ranking): most potent modulators of transport activity

C=CCc1ccc(OC)c(-c2ccc(OC)c(CC=C)c2)c1 [Compound H16]
modulation of transport activity in the fluorescent screen (ranking): most potent modulators of transport activity

C=CCc1cc(Cc2cccc(CC=C)c2OC)ccc1OC [Compound C4a, 3,3′-Diallyl-2,4′-dimethoxy-diphenyl-methan]
modulation of transport activity in the fluorescent screen (ranking): most potent modulators of transport activity

C=CCc1cc(NC(C)=O)c(O)c(-c2ccc(OC)c(CC=C)c2)c1 [Compound H8]
modulation of transport activity in the fluorescent screen (ranking): most potent modulators of transport activity

C=CCc1ccc(O)c(-c2ccc(OC)c(CC=C)c2)c1 [Compound H11, 4′-O-methylhonokiol]
modulation of transport activity in the fluorescent screen (ranking): most potent modulators of transport activity

CC(C)(C)c1ccc(O)c(-c2cc(C(C)(C)C)ccc2O)c1 [Compound M6]
modulation of transport activity in the fluorescent screen (ranking): most potent modulators of transport activity
